The text below walks through data of patent US20130303564A1, “METHOD FOR TREATING A NEURODEGENERATIVE DISORDER” (RUSH UNIVERSITY MEDICAL CENTER, priority 2012, published 2013).

In one experiment the test system is p21^ras. Conditions: 500 μM preincubation.
Experiment [1] concerns dopaminergic neurons of MPTP-intoxicated mice. Conditions: 200 mg/kg body wt/day from 3 h after last MPTP, 7 d.
Protocol: Mice receiving NaPB (200 mg/kg body wt/day) from 3 h after the last injection of MPTP were sacrificed 7d after the last injection of MPTP followed by TH immunostaining of SNpc (A) and striatum (B), counting of TH-positive neurons in SNpc (C), quantification of TH-positive fibers in striatum (D), assay of neurotransmitters in striatum (E), and quantification of GSH in nigra (F). Data are means+SEM of eight mice per group. ^ap<0.0001 vs saline group; ^bp<0.0001 vs the MPTP group.
For acute MPTP intoxication, mice received four intraperitoneal (i.p.) injections of MPTP-HCl (18 mg/kg of free base; Sigma Chemical Co., St. Louis, Mo.) in saline at 2 hr intervals. Control animals received only saline. For chronic MPTP intoxication, mice received 10 injections of MPTP (s.c.; 25 mg/kg body weight) together with 10 injections of probenecid (i.p.; 250 mg/kg body weight) at an interval of 3.5 d.
Therefore, for short-term treatment, mice with acute MPTP 3 h after the last injection of MPTP. […]
Immunohistochemistry and quantitative morphology: Seven days after MPTP intoxication, mice were sacrificed and their brains fixed, embedded, and processed for tyrosine hydroxylase (TH) staining. […] Quantitation of striatal TH immunostaining was performed. […]
Experiment [2] concerns chronic MPTP mouse model of PD. Conditions: oral 100 mg/kg body wt/d from the third injection of MPTP/probenecid.
Protocol: A) Six to eight week old male C57BL/6 mice received 10 injections of MPTP (s.c.; 25 mg/kg body weight) together with 10 injections of probenecid (i.p.; 250 mg/kg body weight) for 5 weeks. Control group of mice received only saline. One group of mice were treated with NaPB (100 mg/kg body weight/d) via gavage from the 3rd injection of MPTP/probenecid and continued for 1 week thereafter. Mice were tested for different motor tasks [horizontal activity (C), number of movements (D), rearing (E), and stereotypy (F)] one week after the last injection of MPTP followed by measuring the level of DA in striatum (B). Data are means+SEM of eight mice per group. ^ap<0.001 vs saline; ^bp<0.001 vs MPTP; p<0.05 vs saline; ^dp<0.05 vs MPTP.
We examined if NaPB was capable of protecting neurons in a chronic model (FIG. 10A). […] We initiated oral NaPB treatment (100 mg/kg body wt/d) from the third injection of MPTP/probenecid (FIG. 10A). […]
HPLC analysis of striatal dopamine and its metabolite levels: Striatal level of dopamine, DOPAC (3,4-dihydroxyphenylacetic acid) and HVA (homovanillic acid) was quantified. […] After pH adjustment and filtration, lOul of supernatant was injected onto an Eicompak SC-3ODS column (Complete Stand-Alone HPLC-ECD System EiCOMITTEC-500 from JM Science Inc., Grand Island, N.Y.) and analyzed following manufacturer's protocol.
Experiment [3] relates to iNOS. As to the method: (§1) Mouse BV-2 microglial cells were treated with different concentrations of NaPB for 6 h followed by stimulation with 1 μM. MPP under serum-free condition. After 5 h of stimulation, the mRNA expression of iNOS, IL-1β and TNF-α was monitored by semi-quantitative RT-PCR (A) and quantitative real-time PCR (C, iNOS; D, IL-1β; E, TNF-α). After 24 h of stimulation, the protein expression of iNOS was monitored by Western blot (B).
(§2) Glial inflammation is a critical component of PD pathogenesis which is mirrored in MPTP mouse models. The neurotoxic effect of MPTP depends on its conversion into MPP+. In glial cells, MAO-B converts MPTP to MPP+, which then leads to glial activation. MPP+ is able to stimulate the microglial expression of inflammatory molecules including NO, TNF-α, IL-1β, and IL-6. Although, a well characterized receptor for MPP+ was not known in microglial cells until recent past, low dose of MPP+ stimulates microglial activation via the engagement of cysteinyl leukotriene receptor (CysLT1R), MPP+ dependent activation of CysLT1R and its subsequent translocation from plasma membrane to cytosol plays a critical role in the process of microglial activation. Therefore, we investigated MPP+ could induce the expression of proinflammatory molecules microglia and if NaPB suppressed such induction.
(§3) Real-time PCR analysis: It was performed in the ABI-Prism7700 sequence detection system (Applied Biosystems, Foster City, Calif.) using TaqMan Universal Master mix and optimized concentrations of FAM-labeled probes and primers.

Experiment [4] relates to TNF-α. Conditions: different concentrations, 6 h preincubation, 1 μM MPP+ 5 h. The protocol:
as §1, §2, §3

The subject of experiment [5] is IL-1β. To be noted: different concentrations, 6 h preincubation, 1 μM MPP+ 5 h. As to the method:
as §1, §2, §3

For a further experiment, the system named is p21^rac. To be noted: 200 mg/kg body wt/day gavage from 1 d prior to MPTP; 6 h after last MPTP.
Experiment [6] relates to iNOS. As to the method: Primary mouse microglia were treated with different concentrations of NaPB for 6 h followed by stimulation with LPS under serum-free condition. After 24 h of stimulation, concentrations of nitrite were measured in supernatants (A) and the level of iNOS protein was monitored in cells by Western blot (B). […] After 5 h of stimulation, the expression of iNOS mRNA was monitored by semi-quantitative RT-PCR (C). Cells preinctibated with different concentration of trichostatin A (TSA) and sodium butyrate (NaBu) for 6 h were stimulated with LPS for 24 h under serum-free condition followed by monitoring the level of nitrite in supernatants (p). […] Primary human astroglia isolated from fetal brain tissues were treated with different concentrations of NaPB for 6 h followed by stimulation with IL-1β under serum-free condition. After 48 h of stimulation, concentrations of nitrite (E) were measured in supernatants. Human astroglia plated at 70-80% confluence in 12-well plates were co-transfected with 0.25 μg of phiNOS(7.2)Luc and 12.5 ng of pRL-TK using the Lipofectamine-Plus (Invitrogen). Twenty-four h after transfection, cells received NaPB. After 6 h of incubation, cells were stimulated with IL-1β (20 ng/ml) for 12 h. Firefly (ff-Luc) and Renilla (r-Luc) luciferase activities were obtained by analyzing the total cell extract (F). […]
The source holds these as a separate data set.

The test system of another experiment is NF-κB p65. To be noted: 200 mg/kg body wt/day gavage from 3 h after last MPTP; 24 h after last MPTP.
The test system of experiment [7] is iNOS. The protocol:
(§4) A) Mice were treated with NaPB (200 mg/kg body wt/d) from 3 h after the last injection of MPTP. […] The mRNA expression of TNF-α, iNOS and IL-1β was analyzed by semi-quantitative RT-PCR (C) and quantitative real-time PCR (D).
(§5) Semi-quantitative RT-PCR analysis for proinflammatory molecules (iNOS, IL-1β and TNF-α) and glial cell markers: Total RNA was isolated from ventral midbrain using Ultraspec-II RNA reagent (Biotecx .Laboratories, Inc., Houston, Tex.) following manufacturer's protocol. To remove any contaminating genomic DNA, total RNA was digested with DNase. RT-PCR was carried out using a RT-PCR kit (Clontech., Mountain View, Calif.) and following primers.
as §3
The source holds these as a separate data set.

The subject of experiment [8] is TNF-α. To be noted: 200 mg/kg body wt/d from 3 h after last MPTP; RT-PCR, real-time PCR. As to the method:
as §4, §5, §3
On the technique in general: In qPCR the cycle at which signal appears reflects the starting amount.

Experiment [9] concerns IL-1β. To be noted: 200 mg/kg body wt/d from 3 h after last MPTP; RT-PCR, real-time PCR. As to the method:
as §4, §5, §3

Description for NF-κB p65: Twenty-four h after the last injection of MPTP, ventral midbrain sections were immunostained for p65 (low magnification). Midbrain sections of MPTP-intoxicated mice were also double-labeled for p65 and glial cell markers (GFAP for astrocytes and CD11b for microglia). Results represent three independent experiments. D) NF-κB p65 positive cells counted in four nigral sections (two images per slide) from each of four mice in an Olympus IX81 fluorescence microscope using the MicroSuite™ imaging software are mentioned as cells/mm2. ^ap<0.0001 vs saline-control; ^bp<0.0001 vs MPTP.
Next, mice were treated with NaPB (200 mg/kg body wt/day) via gavage from 3 h after the last injection of MPTP and the activation of NF-κB was examined 24 h after the last injection of MPTP.
For acute MPTP intoxication, mice received four intraperitoneal (i.p.) injections of MPTP-HCl (18 mg/kg of free base; Sigma Chemical Co., St. Louis, Mo.) in saline at 2 hr intervals. Control animals received only saline.
For immunofluorescence staining on fresh frozen sections, rat anti-mouse CD11b (1:100), goat anti-mouse GFAP (1:100), rabbit anti NF-κB p65 (1:100), goat anti-NF-κB p65 (1:100), rabbit anti NF-κB p50 (1:100), and rabbit anti-mouse iNOS (1:250) were used. The samples were mounted and observed under a Bio-Rad MRC1024ES confocal laser scanning microscope.
Protocol for p21^rac: A) Mice were treated with NaPB (200 mg/kg body wt/d.) via gavage from 1 d prior to MPTP injection. Six h after the last injection of MPTP, activation of p21^ras and p21^rac was monitored in ventral midbrain tissues. Experiment was repeated three times each time using two animal in each group. B) Bands from three different mice were quantified and activation of p21^ras and p21^rac is shown as percent of control, C) Mice were treated with NaPB (200 mg/kg body wt/d) from 3 h after the last injection of MPTP.
Animals and MPTP intoxications: Six- to eight-week old C57BL/6 mice were purchased from Harlan, Indianapolis, Ind. For acute MPTP intoxication, mice received four intraperitoneal (i.p.) injections of MPTP-HCl (18 mg/kg of free base; Sigma Chemical Co., St. Louis, Mo.) in saline at 2 hr intervals. Control animals received only saline.
Protocol for p21^ras: A) Mouse BV-2 microglial cells preincubated with different concentrations of FTI and GGTI were stimulated with LPS for 60 min followed by monitoring the activation of NF-κB by EMSA. B) Cells preincubated with different concentrations of FTI and GGTI were stimulated with LPS for 10 min followed by monitoring the production of superoxide. […] C) Cells were transfected with Δp21^ras, Δp21^rac or an empty vector using Lipofectamine Plus. Twenty-four hour after transfection, cells were stimulated with LPS followed by monitoring superoxide production at 15 and 30 ‘rain of stimulation. ^ap<0.001 vs control; ^bp<0.001 vs LPS-15 min; ^cp<0.001 vs LPS-30 min. D) Cells preincubated with 500 μM NaPB were stimulated with LPS. At different time points, activation of p21^ras and p21^rac was monitored. Results represent three independent experiments.
Next, we examined the effect of NaPB on the activation of p21^ras and p21^rac.
Activation of p21^ras and p21^rac: Activation of p21^ras was monitored. Briefly, after 6 h of MPTP insult, ventral midbrain was dissected out and frozen immediately on dry ice. […] Then the amount of activated p21^ras was determined in GST beads by a Western blot using a p21^ras specific antibody.

As for sodium phenylbutyrate [NaPB], in the experiment on p21^ras, the “LPS-induced activation of p21^ras” value was “markedly suppressed”. The “reduction in striatal TH ODs” value in experiment [1] (vs MPTP alone (70% reduction)) is “less reduction”. The “reduction in SNpc TH-positive neurons” value in experiment [1] (vs MPTP alone (approximately 75% loss)) was “less reduction”. Moreover, the “striatal DA” value in experiment [2] was “significantly protected”. Besides, the “MPP+-induced iNOS mRNA expression” value with iNOS [3] (6 h preincubation, 1 μM MPP+ 5 h) is “suppressed”. The “MPP+-induced iNOS protein expression” value in the experiment with iNOS [3] (6 h preincubation, 1 μM MPP+ 24 h, Western blot) is on record as “suppressed”. The “RasV12-induced expression of iNOS mRNA” value with iNOS [3] (RasV12-transfected cells, NaPB 6 h) is listed as “attenuated”. The “MPP+-induced expression of TNF-α mRNA” value with TNF-α [4] is given as “inhibited”. Further, in the experiment on IL-1β [5], the “MPP+-induced expression of IL-1β mRNA” value was “inhibited”. In addition, the “MPTP-induced activation of p21^rac in the nigra” value in the experiment on p21^rac is reported as “much decreased activation”. Further, the “LPS-induced mRNA expression of iNOS” value in the experiment on iNOS [6] (RT-PCR, 5 h LPS) is “dose-dependently inhibited”. Further, in the experiment with iNOS [6] (Western blot, 24 h LPS), the “LPS-induced protein expression of iNOS” value was “dose-dependently inhibited”. In addition, the “level of p65 in the SNpc” value in the experiment with NF-κB p65 is “markedly inhibited”. Also, in the experiment on iNOS [7] (200 mg/kg body wt/d from 3 h after last MPTP, RT-PCR, real-time PCR), the “MPTP-induced mRNA expression of iNOS in the nigra” value is reported as “strongly inhibited”. In addition, in the experiment with iNOS [7] (200 mg/kg body wt/d gavage from 1 d prior to MPTP, all time points tested (up to 24 h)), the “expression of iNOS mRNA in the nigra, time course” value was “markedly inhibited”. Also, the “MPTP-induced expression of iNOS protein” value in the experiment on iNOS [7] (200 mg/kg body wt/d oral from 3 h after last MPTP, 24 h) was “suppressed”. Besides, in the experiment with TNF-α [8], the “MPTP-induced mRNA expression of TNF-α in the nigra” value was “strongly inhibited”. Moreover, the “MPTP-induced mRNA expression of IL-1β in the nigra” value in the experiment on IL-1β [9] is given as “strongly inhibited”.
